Reference: patent US4251546A, “Process for killing internal helminths using certain 1,1-bis-(2-substituted-3-nitrophenyl)alkane or alkylene derivatives” (ICI Australia Limited, priority 1977, dated 1981)

Columns and labels:
[1] = test system: sheep liver fluke (Fasciola hepatica); experiment: Fluke egg count in faeces and adult fluke count in liver of infected sheep after a single s/c dose (Table 3); assay type: in vivo; details: for POST MORTEM RESULT No. of adult fluke: liver
Method: Compositions suitable for use as experimental injectable solutions were prepared by formulating the compounds as solutions of their salts either in water or in a mixture of water and ethylene glycol or water and polyethylene glycol (PEG200).
Compositions prepared by the method of Example 10 were used as a single dose to test sheep infected with sheep liver fluke (Fasciola hepatica). The number of liver fluke eggs in the faeces was measured at the time of treatment and at selected intervals up to 30 days after treatment. The sheep were killed and the number of adult fluke in the liver counted. The amount and structure of the active ingredient in each composition and the results of treatment of a sheep with that composition are given in the Table 3 below. The compositions were administered by sub-cutaneous injection (s/c).

live Fasciola hepatica = experiment: Minimum effective concentration against live Fasciola hepatica in Hedon-Fleig medium (Table 4); details: in vitro, assessed 24 hours after treatment, read-out: MINIMUM EFFECTIVE CONCENTRATION (minimum concentration required to kill Fasciola hepatica)
Method: The minimum effective concentration of compounds of formula I against live Fasciola hepatica was tested by the direct application of the test compound, in solution, to live Fasciola hepatica in Hedon-Fleig medium. The results are given in Table 4 where the minimum effective concentration (minimum concentration required to kill Fasciola hepatica) was assessed 24 hours after treatment with the test compound.

O=[N+]([O-])c1cc(Cl)cc(Cc2cc(Cl)cc([N+](=O)[O-])c2O)c1O [Compound 1]
FAECAL EGG COUNT, day 7 ([1]; single dose 12.5 mg/kg): 0 Eggs/g faeces | FAECAL EGG COUNT, day 14 ([1]; single dose 12.5 mg/kg): 50 Eggs/g faeces | FAECAL EGG COUNT, day 30 ([1]; single dose 12.5 mg/kg, day 30): 0 Eggs/g faeces | POST MORTEM RESULT No. of adult fluke ([1]; single dose 12.5 mg/kg): 0

O=[N+]([O-])c1cc(Cl)cc(Cc2cc(Br)cc([N+](=O)[O-])c2O)c1O [Compound 3]
FAECAL EGG COUNT, day 7 ([1]; single dose 12.5 mg/kg): 0 Eggs/g faeces | FAECAL EGG COUNT, day 14 ([1]; single dose 12.5 mg/kg): 0 Eggs/g faeces | POST MORTEM RESULT No. of adult fluke ([1]; single dose 12.5 mg/kg): 1

CC(c1cc(Cl)cc([N+](=O)[O-])c1O)c1cc(Cl)cc([N+](=O)[O-])c1O [Compound 7]
FAECAL EGG COUNT, day 7 ([1]; single dose 5.0 mg/kg): 0 Eggs/g faeces | FAECAL EGG COUNT, day 14 ([1]; single dose 5.0 mg/kg): 50 Eggs/g faeces | FAECAL EGG COUNT, day 7 ([1]; single dose 8.0 mg/kg): 0 Eggs/g faeces | FAECAL EGG COUNT, day 14 ([1]; single dose 8.0 mg/kg): 0 Eggs/g faeces | POST MORTEM RESULT No. of adult fluke ([1]; single dose 8.0 mg/kg): 0 | FAECAL EGG COUNT, day 7 ([1]; single dose 12.5 mg/kg): 20 Eggs/g faeces | FAECAL EGG COUNT, day 14 ([1]; single dose 12.5 mg/kg): 0 Eggs/g faeces | POST MORTEM RESULT No. of adult fluke ([1]; single dose 12.5 mg/kg): 0 | FAECAL EGG COUNT, day 7 ([1]; single dose 20.0 mg/kg): 0 Eggs/g faeces | FAECAL EGG COUNT, day 13 ([1]; single dose 20.0 mg/kg, day 13): 0 Eggs/g faeces | POST MORTEM RESULT No. of adult fluke ([1]; single dose 20.0 mg/kg): 0

CC(c1cc(Cl)cc([N+](=O)[O-])c1O)c1cc(Br)cc([N+](=O)[O-])c1O (stereo not shown) [Compound 8, 1-(5-Bromo-2-hydroxy-3-nitrophenyl)-1-(5-chloro-2-hydroxy-3-nitrophenyl)ethane]
FAECAL EGG COUNT, day 7 ([1]; single dose 4.0 mg/kg): 110 Eggs/g faeces | FAECAL EGG COUNT, day 14 ([1]; single dose 4.0 mg/kg): 80 Eggs/g faeces | FAECAL EGG COUNT, day 7 ([1]; single dose 6.0 mg/kg): 20 Eggs/g faeces | FAECAL EGG COUNT, day 14 ([1]; single dose 6.0 mg/kg): 10 Eggs/g faeces | POST MORTEM RESULT No. of adult fluke ([1]; single dose 6.0 mg/kg): 0 | FAECAL EGG COUNT, day 7 ([1]; single dose 8.0 mg/kg): 0 Eggs/g faeces | FAECAL EGG COUNT, day 14 ([1]; single dose 8.0 mg/kg): 0 Eggs/g faeces | POST MORTEM RESULT No. of adult fluke ([1]; single dose 8.0 mg/kg): 0 | FAECAL EGG COUNT, day 7 ([1]; single dose 12.5 mg/kg): 0 Eggs/g faeces | FAECAL EGG COUNT, day 14 ([1]; single dose 12.5 mg/kg): 0 Eggs/g faeces | POST MORTEM RESULT No. of adult fluke ([1]; single dose 12.5 mg/kg): 0

CC(c1cc(Br)cc([N+](=O)[O-])c1O)c1cc(Br)cc([N+](=O)[O-])c1O [Compound 9]
FAECAL EGG COUNT, day 7 ([1]; single dose 12.5 mg/kg): 0 Eggs/g faeces | FAECAL EGG COUNT, day 14 ([1]; single dose 12.5 mg/kg): 0 Eggs/g faeces | POST MORTEM RESULT No. of adult fluke ([1]; single dose 12.5 mg/kg): 0

CC(c1cc(Br)cc([N+](=O)[O-])c1O)c1cc(I)cc([N+](=O)[O-])c1O (stereo not shown) [Compound 10]
FAECAL EGG COUNT, day 7 ([1]; single dose 12.5 mg/kg): 10 Eggs/g faeces | FAECAL EGG COUNT, day 14 ([1]; single dose 12.5 mg/kg): 90 Eggs/g faeces

O=[N+]([O-])c1cc(Cl)cc(C(c2cc(Cl)cc([N+](=O)[O-])c2O)C(Cl)(Cl)Cl)c1O [Compound 11]
FAECAL EGG COUNT, day 7 ([1]; single dose 5.0 mg/kg): 50 Eggs/g faeces | FAECAL EGG COUNT, day 14 ([1]; single dose 5.0 mg/kg): 0 Eggs/g faeces | POST MORTEM RESULT No. of adult fluke ([1]; single dose 5.0 mg/kg): 0

O=[N+]([O-])c1cc(F)cc(C(=C(Cl)Cl)c2cc(F)cc([N+](=O)[O-])c2O)c1O [Compound 16]
FAECAL EGG COUNT, day 7 ([1]; single dose 12.5 mg/kg): 10 Eggs/g faeces | FAECAL EGG COUNT, day 14 ([1]; single dose 12.5 mg/kg): 10 Eggs/g faeces | POST MORTEM RESULT No. of adult fluke ([1]; single dose 12.5 mg/kg): 0

CC(=O)Oc1c(C(=C(Cl)Cl)c2cc(Cl)cc([N+](=O)[O-])c2OC(C)=O)cc(Cl)cc1[N+](=O)[O-] [Compound 17]
FAECAL EGG COUNT, day 7 ([1]; single dose 12.0 mg/kg): 110 Eggs/g faeces | FAECAL EGG COUNT, day 14 ([1]; single dose 12.0 mg/kg): 0 Eggs/g faeces | POST MORTEM RESULT No. of adult fluke ([1]; single dose 12.0 mg/kg): 0

COC(=O)Oc1c(C(=C(Cl)Cl)c2cc(Cl)cc([N+](=O)[O-])c2OC(=O)OC)cc(Cl)cc1[N+](=O)[O-] [Compound 18]
FAECAL EGG COUNT, day 7 ([1]; single dose 12.0 mg/kg): 60 Eggs/g faeces | FAECAL EGG COUNT, day 14 ([1]; single dose 12.0 mg/kg): 0 Eggs/g faeces | POST MORTEM RESULT No. of adult fluke ([1]; single dose 12.0 mg/kg): 1

CC(C)(c1cc(F)cc([N+](=O)[O-])c1O)c1cc(F)cc([N+](=O)[O-])c1O [Compound 19, 2,2'-Isopropylidene bis(4-fluoro-6-nitrophenol)]
FAECAL EGG COUNT, day 7 ([1]; single dose 12.5 mg/kg): 210 Eggs/g faeces | FAECAL EGG COUNT, day 14 ([1]; single dose 12.5 mg/kg): 180 Eggs/g faeces

CC(C)(c1cc(F)cc([N+](=O)[O-])c1O)c1cc(Cl)cc([N+](=O)[O-])c1O [Compound 20, 2-(5-chloro-2-hydroxy-3-nitrophenyl)-2-(5-fluoro-2-hydroxy-3-nitrophenyl)propane]
FAECAL EGG COUNT, day 7 ([1]; single dose 12.5 mg/kg): 400 Eggs/g faeces | FAECAL EGG COUNT, day 14 ([1]; single dose 12.5 mg/kg): 140 Eggs/g faeces

CC(C)COC(c1cc(Cl)cc([N+](=O)[O-])c1O)c1cc(Cl)cc([N+](=O)[O-])c1O [Compound 24, bis(5-chloro-2-hydroxy-3-nitrophenyl)methyl isobutyl ether]
FAECAL EGG COUNT, day 7 ([1]; single dose 6.0 mg/kg): 20 Eggs/g faeces | FAECAL EGG COUNT, day 14 ([1]; single dose 6.0 mg/kg): 10 Eggs/g faeces | POST MORTEM RESULT No. of adult fluke ([1]; single dose 6.0 mg/kg): 0

CCOC(c1cc(Cl)cc([N+](=O)[O-])c1O)c1cc(Cl)cc([N+](=O)[O-])c1O [Compound 26]
FAECAL EGG COUNT, day 7 ([1]; single dose 6.0 mg/kg): 130 Eggs/g faeces | FAECAL EGG COUNT, day 14 ([1]; single dose 6.0 mg/kg): 10 Eggs/g faeces | POST MORTEM RESULT No. of adult fluke ([1]; single dose 6.0 mg/kg): 0

CC(C)SC(c1cc(Cl)cc([N+](=O)[O-])c1O)c1cc(Cl)cc([N+](=O)[O-])c1O [Compound 30]
FAECAL EGG COUNT, day 7 ([1]; single dose 12.0 mg/kg): 10 Eggs/g faeces | FAECAL EGG COUNT, day 14 ([1]; single dose 12.0 mg/kg): 0 Eggs/g faeces | POST MORTEM RESULT No. of adult fluke ([1]; single dose 12.0 mg/kg): 1

O=[N+]([O-])c1cc(Cl)cc(C(Oc2ccccc2)c2cc(Cl)cc([N+](=O)[O-])c2O)c1O [Compound 32]
minimal effective concentration (live Fasciola hepatica): 5 µg/mL

N#Cc1ccc(OC(c2cc(Cl)cc([N+](=O)[O-])c2O)c2cc(Cl)cc([N+](=O)[O-])c2O)cc1 [Compound 33]
minimal effective concentration (live Fasciola hepatica): 5 µg/mL
